Read-outs that look alike come from different tables or passages of the source.
Experiments:
sec7-domain of Gea2 = molecular target: T1, sec7-domain of Gea2 (Saccharomyces cerevisiae, UniProt P39993); assay: GDP/GTP exchange on NΔ17-ARF1 catalysed by sec7-domain (tryptophan fluorescence); type: biochemical
T1 construct: 1 μM of the purified sec7-domain of cytohesin-1, cytohesin-2 and Gea2; made in house; host or cells: E. coli BL21DE3
Protocol: (§1) The IC50 value for the inhibition of the exchange activity of the sec7-domains of various guanine nucleotide exchange factors of the compounds (9), (10), (11), (12), (14) and (19) was determined.
(§2) For this purpose, the sec7-domains of cytohesin-1, cytohesin-2 and Gea2 as well as the NΔ 17-ARF 1, a mutant of the ARF protein, recombinantly expressed in E. coli BL21DE3, were purified by means of a standard method and used as catalysts for the exchange from GDP to GTP in GTPases of the family of the ADP ribosylation factors. The exchange from GDP to GTP induces a conformation change of the ribosylation factor, as a result of which the fluorescence of a tryptophan radical of the protein is increased.
(§3) In 50 mM of HEPES, pH 7.4, 120 mM of KCl, 1 mM of MgCl2, 45 μM of GTP S, the compounds (9), (10), (11), (12), (14) and (19), each in concentrations of 1 μM to 30 μM, were added to 1 μM NΔ 17-ARF1 and, in each case, 1 μM of the purified sec7-domain of cytohesin-1, cytohesin-2 and Gea2, and the fluorescence was measured in a Varioskan, Thermo LifeSciences Inc., at the following wavelengths: excitation: 275 nm, emission 340 nm.
(§4) The IC50 value can be determined by plotting the initial rise of the fluorescence signal against the added concentrations of the compounds. The IC50 value corresponds to the concentration of the compounds at which the activity of the protein is reduced to half. […] Brefeldin A, a specific inhibitor of the […] Gea2 served as the control.

[1] = molecular target: T2, sec7-domain of cytohesin-1 (Homo sapiens, UniProt Q15438); assay: as above; type: biochemical; details: 1 μM NΔ17-ARF1, 1 μM sec7-domain, compounds 1 μM to 30 μM
T2 construct: central sec7-domain, corresponding to the amino acids 62-244 in cytohesin-1; made in house; host or cells: E. coli BL21DE3
T2 sequence (Q15438 62-244): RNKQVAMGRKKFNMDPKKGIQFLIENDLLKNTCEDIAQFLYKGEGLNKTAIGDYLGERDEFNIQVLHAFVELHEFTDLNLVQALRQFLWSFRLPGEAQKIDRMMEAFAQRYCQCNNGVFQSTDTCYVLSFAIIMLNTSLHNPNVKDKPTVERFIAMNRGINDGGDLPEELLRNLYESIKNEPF
Protocol: as §1, §2, §3, §4

[2] = test system: sec7-domain of cytohesin-1; assay: as above; type: biochemical; details: conclusion in words from Table 1
Protocol: as §1, §2, §3, §4

[3] = molecular target: T3, sec7-domain of cytohesin-2 (Homo sapiens, UniProt Q99418); assay: as above; type: biochemical; details: 1 μM NΔ17-ARF1, 1 μM sec7-domain, compounds 1 μM to 30 μM
T3 construct: 1 μM of the purified sec7-domain of cytohesin-1, cytohesin-2 and Gea2; made in house; host or cells: E. coli BL21DE3
T3 sequence (Q99418 72-201 limits assumed): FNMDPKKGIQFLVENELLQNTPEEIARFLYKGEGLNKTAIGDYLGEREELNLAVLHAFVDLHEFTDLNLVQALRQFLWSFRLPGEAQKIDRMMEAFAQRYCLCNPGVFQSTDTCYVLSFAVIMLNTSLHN
Protocol: as §1, §2, §3, §4

cytohesin-2 = assay: luciferase assay in HeLa-cells (serum response element activation, MAPK path via cytohesin-2); type: cell-based; details: compounds 1 μM to 50 μM, read-out: IC50 (luciferase signal)
Protocol: The IC50 value was determined in comparison to the LC50 value in a luciferase assay in HeLa-cells, corresponding to the test conditions described in Theis, M. G. et al., Proc Natl Acad Sci USA, 101, 11221-26 (2004). The stimulation of receptor tyrosine kinases by means of growth factors contained in fetal calf serum activates the MAPK path via cytohesin-2 and results in an activation of the serum response element. This activation manifests itself in the quantity of luciferase produced in the cells.
Compounds (9), (10), (11), (12), (14) and (19) were each added in concentrations of 1 μM to 50 μM to 6.5×10^4 HeLa-cells.
The IC50 value was determined from the plotting of the concentration of the compound against the intensity of the luciferase signal.

[4] = MTT assay (LC50) in HeLa-cells; type: cell-based; details: human, after 24 hours
Protocol: The LC50 values were determined by an MTT assay according to a standard method.
The LC50 value describes the lethal concentration at which […] died within 24 hours after a one-time administration.

[5] = test system: human peripheral blood cells (PBL); assay: adhesion of human peripheral blood cells (PBL) to ICAM-1 after stimulation with OKT3 or PMA; type: cell-based; details: stimulation with OKT3; FIG. 2
Excerpt: Human peripheral blood cells (PBL) were stimulated with agonists that activate a beta-2 integrin-dependent adhesion. In these primary human lymphocytes, the beta-2 integrin-dependent adhesion can be activated by cytohesins at the specific ligands ICAM-1.
The agonists employed were the monoclonal antibody OKT3 (hybridome of ATCC, mAb OKT3 purified on protein A, according to standard methods from Current Protocols in Immunology, 5th Ed., Coligan et al., Edts, Wiley 2004) against the CD3 complex, a T-cell receptor and phorbolester (PMA), which non-physiologically activates intracellular signal cascades in human PBL including integrin-dependent adhesion while circumventing cytohesins.
Cells from human blood were isolated according to standard methods (Current Protocols in Immunology, 5th Ed., 2004, Coligan et al., Edts, Wiley). Cell culture dishes coated with ICAM-1 were produced by means of recombinant ICAM-1-Fc fusion protein (Kolanus, W. et al., Cell 86, 233-42 (1996), Geiger, C. et al., EMBO J., 19, 2525-2536 (2000)). 300,000 human peripheral blood cells (PBL) were stimulated for 30 minutes with 2 μg/ml of OKT3 or 40 ng/ml of phorbolester (PMA) in Hank's BSS, (Gibco; composition (g/l): CaCl2x2H2O (0.185), KCl (0.4), KH2PO4 (0.06), MgCl2x6H2O (0.1), MgSO4x7H2O (0.1), NaCl (8.0), NaHCO3 (0.35), Na2HPO4 (0.048), D-glucose (1.0)), and placed for one hour in Hank's BSS onto the ICAM-1 coated cell culture dishes, whereby the agonists were not removed. Non-bound cells were removed by washing with Hank's BSS. The percentage of bound cells was determined by counting under a microscope using a standard counting grid.

T1 sequence (P39993 570-714): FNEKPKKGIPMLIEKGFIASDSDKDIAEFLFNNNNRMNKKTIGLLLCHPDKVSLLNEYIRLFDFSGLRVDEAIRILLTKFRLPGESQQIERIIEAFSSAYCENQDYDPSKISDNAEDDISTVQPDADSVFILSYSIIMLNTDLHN

Row | SMILES | IC50 (sec7-domain of Gea2; 1 μM NΔ17-ARF1, 1 μM sec7-domain, compounds 1 μM to 30 μM, read-out: IC50 Gea2-sec7) [µM] | IC50 [1] [µM] | specificity of inhibition of sec7-domains (cytohesins vis-à-vis Gea2) [2] | IC50 [3] [µM] | IC50 (sec7-domain of Gea2) [µM] | IC50 (cytohesin-2) [µM] | CC50 at 24 h [4] [µM] | effect on OKT3-mediated adhesion in primary human lymphocytes [5]
1 | C[C@H]1CCC/C=C/[C@@H]2C[C@H](O)C[C@H]2[C@H](O)/C=C/C(=O)O1 [Brefeldin A, reference compound] | 23 ± 1 | > 150 | specific inhibition of the sec7-domain of Gea2 | > 150 |  |  |  | 
2 | CCOc1nc(-c2cccc(F)c2)n(-c2ccc(NC(=O)Cc3cccs3)cc2)n1 [Compound 10] |  | 12.6 ± 0.3 | specific inhibition of the sec7-domains of the cytohesins | 16.1 ± 0.9 | 67 ± 5 | 23 ± 5 | > 150 | 
3 | CCOc1nc(-c2ccccc2F)n(-c2ccc(NC(=O)CSc3ccccc3)cc2)n1 [Compound 11] |  | 8.8 ± 0.3 | specific inhibition of the sec7-domains of the cytohesins | 12.4 ± 0.3 | 42 ± 4 | 5 ± 1.5 | 142 ± 12 | 
4 | CN(c1cc(Cl)nc(SCc2ccc(C(=O)NCc3ccco3)cc2)n1)C1CCCCC1 [Compound 12] |  | 8 ± 0.3 | specific inhibition of the sec7-domains of the cytohesins | 19.5 ± 0.3 | 22 ± 2 | 5 ± 1.5 | > 150 | 
5 | O=C(CN(CC1CCCO1)C(=O)Cc1cccs1)N(Cc1ccc(F)cc1)Cc1ccco1 (stereo not shown) [Compound 14] |  | 14.8 ± 0.3 | specific inhibition of the sec7-domains of the cytohesins | 19.3 ± 0.3 |  | 3 ± 1 |  | 
6 | O=C(O)[C@H]1CSCN1C(=O)Cc1cccs1 [Compound 19] |  | 15 ± 0.3 | specific inhibition of the sec7-domains of the cytohesins | 20 ± 0.6 |  | 3.5 ± 0.5 | > 150 | 
7 | CC(C)(C)c1ccc(S(=O)(=O)N(Cc2ccc(OS(C)(=O)=O)cc2)CC2CCCO2)cc1 (stereo not shown) [Control 1, reference compound] |  |  |  |  |  | > 50 | > 150 | 
8 | CCOCCCN(Cc1nc(C(=O)NCCCOCO)co1)C(=O)c1ccccc1Br [Control 2, reference compound] |  |  |  |  |  |  |  | no effect

Reference: patent US8163788B2, “Low-molecular inhibitors of cytohesin-family guanine nucleotide exchange factors” (Rheinische Friedrich-Wilhelms Universitat Bonn, priority 2004, dated 2012)
